Results on one compound are retold here after US20260138981A1, “DIHYDROFOLATE REDUCTASE INHIBITORS FOR ANTI-BIOTIC RESISTANT INFECTIONS” (THE TRUSTEES OF PRINCETON UNIVERSITY, priority 2022, published 2026).

Values after ≈ are worked out from the molar mass of the structure shown.

The subject of series [1] is S. aureus NRS384. The series is described as follows: MIC, WuXi, Mueller-Hinton Broth. In kind it is cell-based. The settings on record: Staphylococcus aureus, performed by WuXi in Mueller-Hinton Broth. How it is done: (§1) For MICs calculations performed by WuXi (Shanghai, China), MIC was calculated as the lowest concentration that inhibits visible growth after 18 hours. 4-8 bacterial colonies of strains of interest were vortexed in saline and adjusted to an OD600 of 0.2. Strains were diluted 1:200 into CAMHB media into 96-well plates. Antibiotics were serially diluted 1:3 in DMSO, and 1 μL of each dilution was added to bacteria. The plates were incubated for 18-20 hours at 37° C. before observation.

Series [2] concerns A. baumannii ATCC 17978. Nature of the series: MIC, WuXi, Mueller-Hinton Broth. In kind it is cell-based. The settings on record: Acinetobacter baumannii, ATCC17978, performed by WuXi in Mueller-Hinton Broth. How it is done: as §1
The test system of series [3] is E. coli ATCC BAA-198. Nature of the series: MIC, WuXi, Mueller-Hinton Broth. In kind it is cell-based. Particulars: Escherichia coli, ATCCBAA198, performed by WuXi in Mueller-Hinton Broth. How it is done:
as §1

Series [4] has as its system E. faecalis ATCC 51575. The series is described as follows: MIC, WuXi, Mueller-Hinton Broth. In kind it is cell-based. The settings on record: Enterococcus faecalis, ATCC51575, performed by WuXi in Mueller-Hinton Broth. The procedure: as §1
Series [5] deals with S. typhimurium CMCC 50115. Nature of the series: MIC, WuXi, Mueller-Hinton Broth. In kind it is cell-based. The settings on record: Salmonella enterica, performed by WuXi in Mueller-Hinton Broth. The procedure: as §1
The subject of series [6] is PBMC. In kind it is cell-based. Particulars: 72 h. How it is done: (§2) FIG. 5D provides IC50 of fluorofolin against in vitro mammalian cell lines relative to the IC50 of IRS-16. HLF: human lung fibroblast, HK-2: human kidney epithelial, PBMC: peripheral blood mononuclear cell, WI-38: Embryonic lung tissue.
(§3) After 24 hours, DMSO or compounds were added in 3-fold dilutions and incubated for 72 hours. For PBMC, CellTiter-Glo Reagent was added in equal volume and incubated for 30 min after which luminescence was read. For other cell types, CyQUANT Detection Reagent was added in equal volume and incubated for 1 hour after which fluorescence was read with standard green filter set (508/527 nm ex). Cell toxicity was evaluated by Pharmaron, Inc. (Beijing, […]).

Series [7] in a line: Pharmacokinetic analysis after single oral dose. In kind it is in vivo, mouse. The settings on record: single dose 200 mg/kg PO, CD-1 mice. How it is done: FIG. 2A quantifies plasma concentration of fluorofolin over time after single oral administration to neutropenic CD1 mice. Each line is representative of an individual mouse.
Pharmacokinetics determination: Care and handling of male CD-1 mice approximately 6-8 weeks old conformed to institutional animal care and use policies as carried out at Pharmaron, Inc. (Beijing, ROC).
Pharmacokinetic properties were determined after a single dose of 200 mg/kg fluorofolin given PO. Plasma samples were taken from three mice at times 0.083, 0.25, 0.5, 1, 2, 4, 8, and 24 hours and quantitative analysis was performed using LC/MS/MS. Half-life was determined from plasma concentration after fluorofolin levels reached pseudo-equilibrium (4 hours for mouse 1 and 2, and 2 hours for mouse 3). Pharmacokinetic values were estimated using a non-compartmental model generated from WinNonlin 6.1. Pharmacokinetic analysis was carried out by Pharmaron, Inc. (Beijing, ROC).

In series [8] the test system is P. aeruginosa PA14. Nature of the series: Murine thigh infection model of PA14. In kind it is in vivo, mouse. Particulars: 24 hours. The procedure:
FIG. 2C quantifies treatment of mice with fluorofolin (SC) with or without SMX 100 mg/kg (IP).
FIG. 2D characterizes Fluorofolin and SMX treatment of mice fed a diet of thymidine-supplemented chow during PA14 infection. Mice were treated 1 and 12 hours post infection (n=5 for each group). P values from Tukey's multiple comparisons test (P-values≤0.0001).
To investigate the ability of fluorofolin to clear a P. aeruginosa infection in vivo, a murine thigh infection model of PA14 was employed. The maximum tolerated dose of fluorofolin was determined to be 25 mg/kg administered subcutaneously (SC). […] We note that this dose of SMX was previously used to mimic clinically-relevant levels of SMX used for cotreatment with TMP in humans. Mice were inoculated with 5.33 log CFU of P. aeruginosa PA14 CFU of PA14 and treated SC with fluorofolin at 25 mg/kg at 1 and 12 hours post infection. Thighs were harvested 24 hours post infection to determine bacterial load.
It was also sought to support the feasibility of thymidine supplementation in vivo by testing the hypothesis that fluorofolin should remain active in the presence of thymidine supplementation. […]
Female 5-6-week-old CD-1 mice were made neutropenic through intraperitoneal (IP) cyclophosphamide treatment (Cytoxan) prior to this study. […] In vivo efficacy was evaluated by the University of North Texas Health Science Center (Fort Worth, Texas).

Series [9] relates to P. aeruginosa PA14. Nature of the series: Checkerboard assay of fluorofolin and sulfamethoxazole. In kind it is cell-based. How it is done:
FIG. 2B is a Checkerboard assay of fluorofolin and sulfamethoxazole. Z-values represent fractional inhibitory concentrations (FICs). FICs were determined by dividing the MIC of each drug when used in combination by the MIC when used alone. FIC of less than or equal to 0.5 is considered a synergistic effect.
Cells were seeded in a similar manner as described above for MIC calculations. Sulfamethoxazole (Chem-Impex 00821) was diluted 1:2 down the rows of the plate, while fluorofolin was diluted 1:2 down the column of the plate. Fractional inhibitory concentrations (FICs) were calculated as [fluorofolin]/MICFluorofolin+[SMX]/MICSMX where [fluorofolin] and [SMX] are the concentrations of compounds in given well, which are dividing by the concentration of drug at the MIC for each compound. FIC values less than or equal to 0.5 are considered synergistic.

Series [10] concerns WI-38 cells. Nature of the series: Mammalian cell cytotoxicity (CyQUANT). In kind it is cell-based. The settings on record: 72 hours. The procedure:
as §2, §3

By MIC is commonly meant the least concentration at which growth counts as inhibited. Usually half-life stands for the time needed for the level to fall by half in the phase considered. Higher therefore signals slow decline.

Turning to `Nc1nc(N)c2c(ccc3c2ccn3Cc2ccnc(F)c2)n1` [fluorofolin], the minimal inhibitory concentration (MIC) in [1] was 0.03 µg/mL (≈ 0.0973 µM); in [2], 0.8 µg/mL (≈ 2.59 µM); in [3], 7.11 µg/mL (≈ 23.1 µM); in series [4], 0.01 µg/mL (≈ 0.0324 µM); in [5], 0.03 µg/mL (≈ 0.0973 µM); in [9] (Pseudomonas aeruginosa, PA14, SMX 156 μg/mL, read-out: MIC of fluorofolin in the presence of SMX) it was 0.4 µg/mL. Also, the “increase in IC50 compared to IRS-16” value in series [6] amounted to 9.6 fold; in series [10], 58.5 fold. Also, the half-life in [7] came out at 12.1 h. In addition, the “peak concentration (plasma)” value in [7] came out at 4.0 µg/mL. Moreover, the “growth of PA14 in thigh (bacterial load)” value in [8] (fluorofolin 25 mg/kg SC + SMX 100 mg/kg IP at 1 and 12 hours post infection, vs no treatment and SMX alone, P<0.0001) was “significantly inhibited the growth of PA14”. In addition, the “P. aeruginosa load in thigh, thymidine-supplemented diet” value in [8] (fluorofolin and SMX, mice fed thymidine-supplemented chow, vs untreated mice) is on record as “significant reduction”. In series [9] (combination of fluorofolin and sulfamethoxazole (SMX), PA14), the “synergy (FIC, checkerboard)” value is “significant synergy”.
